Values joined by “and” are separate entries in the source; they are usually repeats but may differ in a detail not shown here. Identical values can stand only once.
Columns and labels:
[1] = Example 9: 2,6-dimethylaniline standard in different color glassware, electrochemical detection; assay type: physicochemical; settings: for Observed Concentration of Standard: prepared at 3 ng/mL
Procedure: For analysis, an aliquot of formulation was diluted 250 times with an aqueous buffer/methanol/acetonitrile diluent. After solubilization of the sample, a small aliquot is transferred into an HPLC vial for analysis using an electrochemical detector.
A series of experiments was conducted examining the effects of amber and red colored glassware on the stability of the 2,6-dimethylaniniline reference standard, using electrochemical detection, at a concentration of 3 ng/mL in an aqueous buffer/methanol solution.
In Experiment 1, the 2,6-dimethylaniline was prepared at a concentration of 3 ng/mL in a clear, colorless glass 100 mL volumetric flask. Aliquots were transferred into clear HPLC glass vials, and assayed against external standards. The 3 injections of the 2,6-dimethylaniline were consistently near 3 ng/mL.
In Experiment 2, the 2,6-dimethylaniline solution at 3 ng/mL prepared in a clear, colorless glass 100 mL volumetric flask was transferred to amber HPLC vials.
An aliquot was transferred into a clear HPLC glass vial, and assayed against external standards. The sample injection had the same 2,6-dimethylaniline concentration value as that in Experiment 1.
In Experiment 4, the 2,6-dimethylaniline solution at 3 ng/mL prepared in the red colored glass 100 mL volumetric flask coated with RAY-SORB® was transferred to an amber HPLC vial.

[2] = Example 14: peroxide content of SAIB / benzyl alcohol versus bupivacaine N-oxide; assay type: physicochemical
Procedure: Placebo compositions were composed of 75% w/w sucrose acetate isobutyrate (SAIB), and 25% w/w benzyl alcohol. Bupivacaine N-oxide in the sustained release bupivacaine compositions can be formed by an oxidative reaction between bupivacaine and peroxides.
The peroxide content for several lots of sucrose acetate isobutyrate were determined by potentiometric titration involving iodometric titration. The bupivacaine N-oxide levels in samples of Formulation A were determined using HPLC with UV detection.
All of the benzyl alcohol compositions had peroxide values of less than […]. The peroxide value can be converted to peroxide content, expressed as hydrogen peroxide, by multiplying PV by 17. […] The maximum contribution to peroxide content from benzyl alcohol is 85 ppm divided by 3, or 28 ppm.

[3] = Example 11: metal content by ICP-MS; assay type: physicochemical
Procedure: Sucrose acetate isobutyrate was tested for metal content as follows. The sample was prepared with a 0.1 g weighed portion mixed with 2 mL nitric acid and 0.5 mL hydrochloric acid for 1 hour on a block digestor set at 110° C. After cooling, 0.5 mL of 30% hydrogen peroxide was added, and the digestion resumed for 30 minutes (the material appeared dissolved). After cooling, internal standard solution was added and dilution with purified water to 20 g produced a solution for ICP-MS analysis. The results are shown below:
Formulation A was compounded using steel compounding tanks. Silicone tubing was used to transfer Formulation A. Formulation A was filled into glass vials, which were then sealed with fluorocarbon-coated stoppers.
Formulation A was tested for metal content as follows. The sample was prepared with a 0.2 g weighed portion mixed with 2 mL nitric acid, 1 mL hydrochloric acid, and 1 mL hydrofluoric acid, then digested in a closed-vessel microwave system (the material appeared dissolved). After cooling, internal standard solution was added and dilution with purified water to 50 g produced a solution for ICP-MS analysis.

[4] = Example 16: in vitro cumulative release of bupivacaine (USP Apparatus II); assay type: physicochemical; settings: oven at 225° C. for 4 hours
Text: To compare dissolution profiles, formulations having 12% w/w bupivacaine but differing ratios of sucrose acetate isobutyrate (SAIB)/solvent were made and tested as described in the below Methods and Materials. Table 16.1 is a summary of the compositions of the formulations tested.
To compare dissolution profiles, formulations having 12% w/w bupivacaine but differing ratios of sucrose acetate isobutyrate (SAIB)/solvent were made and tested as described below. Table 16.3 is a summary of the compositions of the formulations tested.
To compare dissolution profiles, a control formulation and a heat-stressed SAIB formulation were made and tested as described the below Methods and Materials. Both the control and heat-stressed SAIB formulations nominally consisted of 12% w/w bupivacaine, 22% w/w benzyl alcohol, and 66% w/w SAIB.
The bupivacaine formulations, other than the heat-stressed formulation, were prepared by dissolving appropriate amounts of bupivacaine in appropriate amounts of benzyl alcohol (BA), adding an appropriate amount of sucrose acetate isobutyrate (SAIB), and stirring not less than 45 minutes at about 35° C. For the heat-stressed SAIB formulation, the same process was followed except the SAIB was pre-heated in an oven at 225° C. for 4 hours before use. […]
Dissolution was measured using a USP Apparatus II. […]

[5] = test system: patients undergoing elective arthroscopic shoulder surgery; experiment: Example 1 / Study 1: pain intensity and opioid rescue after arthroscopic shoulder surgery; assay type: in vivo, human; settings: 0-72 hours after surgery; ITT
[6] = test system: human peripheral blood lymphocytes; experiment: In vitro chromosomal aberration assay; assay type: cell-based
Text: (§1) Bupivacaine was negative in the in vitro bacterial reverse mutation assay (Ames assay), the in vitro chromosomal aberration assay (human peripheral blood lymphocytes, and the in vivo rat micronucleus assay.

[7] = clinical; settings: human, in vivo
Procedure: Additionally, alpha 1 acid glycoprotein (AAG) plasma concentrations were measured in these two groups for correlation with free bupivacaine concentrations.
Using non-compartmental methods the following PK parameters were calculated from the plasma concentrations of each compound: area under the plasma concentration vs. time curve until the last measured concentration (AUCt), area under the plasma concentration vs. time curve extrapolated until infinity (AUCinf), the maximum concentration (Cmax), the time of its occurrence (tmax) and the apparent terminal elimination half-life (t1/2). […] The average […] of bupivacaine was approximately 5.2%; free bupivacaine plasma concentrations generally paralleled those of total bupivacaine. There was a large interindividual variability of Cmax of both total and free bupivacaine. […] Note: Table 1.5 presents Geometric mean, ±68th percentile for Cmax rather than absolute min,max.

[8] = test system: rat micronucleus; experiment: In vivo rat micronucleus assay
Text: as §1

[9] = clinical; settings: human, in vivo; remark: listed apart in the source
Text: Both bupivacaine and benzyl alcohol have been reported to be excreted in human milk.
Bupivacaine appears to cross the placenta by passive diffusion. The rate and degree of diffusion is governed by (1) the degree of plasma protein binding, (2) the degree of ionization, and (3) the degree of lipid solubility. Fetal/maternal ratios of local anesthetics appear to be inversely related to the degree of plasma protein binding, because only the free, unbound drug is available for placental transfer. Bupivacaine with a high protein binding capacity (95%) has a low fetal/maternal ratio (0.2 to 0.4). The extent of placental transfer is also determined by the degree of ionization and lipid solubility of the drug. Lipid soluble, non-ionized drugs such as bupivacaine readily enter the fetal blood from the maternal circulation.
The kidney is the main excretory organ for most local anesthetics and their metabolites. Urinary excretion is affected by urinary perfusion and factors affecting urinary pH. Only 6% of bupivacaine is excreted unchanged in the urine.

[10] = cited from earlier work
[11] = test system: bacterial reverse mutation; experiment: In vitro bacterial reverse mutation assay (Ames assay); assay type: cell-based
Text: as §1

[12] = test system: pregnant rabbits; experiment: Embryo-fetal development study, subcutaneous, rabbits; assay type: in vivo; settings: pregnant rabbits, subcutaneous; MRHD 660 mg
Procedure: (§2) There are no studies conducted with Formulation A in pregnant women. […] Based on animal data, advise pregnant women of the potential risks to a fetus. [see Data]
Bupivacaine hydrochloride was administered subcutaneously to rats at doses of 4.4, 13.3, & 40 mg/kg and to rabbits at doses of 1.3, 5.8, & 22.2 mg/kg during the period of organogenesis (implantation to closure of the hard palate). The high doses are approximately 0.6 times the daily maximum recommended human dose (MRHD) of 660 mg/day on a mg/m^2 body surface area (BSA) basis.

[13] = test system: rats; experiment: Rat pre- and post-natal development study; assay type: in vivo; settings: rat; MRHD 660 mg
Procedure: as §2
The high dose is approximately 0.6 times the daily MRHD of 660 mg/day on a BSA basis.

Cc1cccc(C)c1N [2,6-dimethylaniline]
2,6-dimethylaniline concentration found ([1]; Experiment 1: clear flask, clear HPLC vials, 3 ng/mL prepared): ~3 ng/mL | 2,6-dimethylaniline concentration relative to Experiment 1 ([1]; Experiment 3: red RAY-SORB flask, clear HPLC vial): same | 2,6-dimethylaniline content relative to Experiments 1 and 3 ([1]; Experiment 4: red RAY-SORB flask, amber HPLC vial): approximately 5 times higher

Cc1cccc(C)c1N [2,6-Dimethlylaniline Standard]
Observed Concentration of Standard ([1]; Experiment 1, Clear volumetric flask, Clear HPLC vial): 3.0 ng/mL and 3.1 ng/mL | Observed Concentration of Standard ([1]; Experiment 2, Clear volumetric flask, Amber HPLC vial): 24.5 ng/mL and 28.4 ng/mL and 34.6 ng/mL and 38.1 ng/mL | Observed Concentration of Standard ([1]; Experiment 3, Red volumetric flask, Clear HPLC vial): 3.0 ng/mL | Observed Concentration of Standard ([1]; Experiment 4, Red volumetric flask, Amber HPLC vial): 14.9 ng/mL

sucrose acetate isobutyrate [SAIB]
Peroxide content in SAIB corresponding to 0.8% bupivacaine N-oxide ([2]; linear regression, FIG. 14): 232.5 ppm | Peroxide in SAIB corresponding to the 1.0% specification limit for bupivacaine N-oxide ([2]; linear regression, FIG. 14): 296.4 ppm | Gold ([3]; Detection Limit 0.02): 0.4 ppm | Tin ([3]; Detection Limit 0.04): 0.0 ppm | Iron ([3]; Detection Limit 1): 2 ppm | SAIB remaining after pre-heating [4]: 98%

CCCCN1CCCCC1C(=O)Nc1c(C)cccc1C (centres unmarked) [Bupivacaine, 1-butyl-N-(2,6-dimethylphenyl)-2-piperidinecarboxamide]
Total IV morphine equivalent dose of opioid rescue medication, median [5]: 8 mg | Chromosomal aberration assay result [6]: negative | fraction unbound [7]: ~0.052 | Rat micronucleus assay result [8]: negative | Cmax [9]: 2850 ng/mL | Excreted unchanged in the urine ([10]; human, in vivo): 6% | Protein binding capacity ([10]; plasma): 95% | Bacterial reverse mutation assay (Ames assay) result [11]: negative | Dose with embryo-fetal lethality [12]: 0.6 times the maximum recommended human dose | Dose with decreased pup survival [13]: 0.6 times the maximum recommended human dose

OCc1ccccc1 [benzyl alcohol]
Peroxide content, expressed as hydrogen peroxide ([2]; PV multiplied by 17): < 8.5 ppm | Peroxide value (PV) ([2]; all lots): less than 0.5 | Effective peroxide contribution to formation of bupivacaine N-oxide ([2]; divided by 3): < 2.8 ppm

Source: patent US12433877B2, “Sustained release drug delivery systems and related methods” (Durect Corporation, priority 2021, dated 2025)
